Measured values as given in the supplement of paper PMC11451515.

Tested on: NOMO1
Assay: cell viability relative to DMSO control; higher = less cytotoxic
Settings: 48 h
Procedure, shortened: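 Cells were incubated for 48 h at 37°C before CellTiter-Glo One luminescence was read. The cells were NOMO1 or SEM (500 cells/well) or P12-Ichikawa (1000 cells/well) leukemia cells, adapted for at least four passages in each medium and seeded in 1536-well plates (5 μl). Dosing used library compounds in DMSO applied by pin over 11 threefold points, 47 μM to 0.79 nM. Viability is the per-plate percentage of DMSO wells, with cell-free wells as background.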

[1] = HPLM + 10% dialyzed FBS, 0.000781 µM
[2] = HPLM + 10% dialyzed FBS, 0.00234 µM
[3] = HPLM + 10% dialyzed FBS, 0.00702 µM
[4] = HPLM + 10% dialyzed FBS, 0.0211 µM
[5] = HPLM + 10% dialyzed FBS, 0.0632 µM
[6] = HPLM + 10% dialyzed FBS, 0.19 µM
[7] = HPLM + 10% dialyzed FBS, 0.569 µM
[8] = HPLM + 10% dialyzed FBS, 1.71 µM
[9] = HPLM + 10% dialyzed FBS, 5.12 µM
[10] = HPLM + 10% dialyzed FBS, 15.4 µM
[11] = HPLM + 10% dialyzed FBS, 46.1 µM
[12] = RPMI 5 mM glucose + 10% FBS, 0.000781 µM
[13] = RPMI 5 mM glucose + 10% FBS, 0.00234 µM
[14] = RPMI 5 mM glucose + 10% FBS, 0.00702 µM
[15] = RPMI 5 mM glucose + 10% FBS, 0.0211 µM
[16] = RPMI 5 mM glucose + 10% FBS, 0.0632 µM
[17] = RPMI 5 mM glucose + 10% FBS, 0.19 µM
[18] = RPMI 5 mM glucose + 10% FBS, 0.569 µM
[19] = RPMI 5 mM glucose + 10% FBS, 1.71 µM
[20] = RPMI 5 mM glucose + 10% FBS, 5.12 µM
[21] = RPMI 5 mM glucose + 10% FBS, 15.4 µM
[22] = RPMI 5 mM glucose + 10% FBS, 46.1 µM
[23] = RPMI 5 mM glucose + 10% dialyzed FBS, 0.000781 µM
[24] = RPMI 5 mM glucose + 10% dialyzed FBS, 0.00234 µM
[25] = RPMI 5 mM glucose + 10% dialyzed FBS, 0.00702 µM
[26] = RPMI 5 mM glucose + 10% dialyzed FBS, 0.0211 µM
[27] = RPMI 5 mM glucose + 10% dialyzed FBS, 0.0632 µM
[28] = RPMI 5 mM glucose + 10% dialyzed FBS, 0.19 µM
[29] = RPMI 5 mM glucose + 10% dialyzed FBS, 0.569 µM
[30] = RPMI 5 mM glucose + 10% dialyzed FBS, 1.71 µM
[31] = RPMI 5 mM glucose + 10% dialyzed FBS, 5.12 µM
[32] = RPMI 5 mM glucose + 10% dialyzed FBS, 15.4 µM
[33] = RPMI 5 mM glucose + 10% dialyzed FBS, 46.1 µM

| SMILES | cell viability [1] [%] | cell viability [2] [%] | cell viability [3] [%] | cell viability [4] [%] | cell viability [5] [%] | cell viability [6] [%] | cell viability [7] [%] | cell viability [8] [%] | cell viability [9] [%] | cell viability [10] [%] | cell viability [11] [%] | cell viability [12] [%] | cell viability [13] [%] | cell viability [14] [%] | cell viability [15] [%] | cell viability [16] [%] | cell viability [17] [%] | cell viability [18] [%] | cell viability [19] [%] | cell viability [20] [%] | cell viability [21] [%] | cell viability [22] [%] | cell viability [23] [%] | cell viability [24] [%] | cell viability [25] [%] | cell viability [26] [%] | cell viability [27] [%] | cell viability [28] [%] | cell viability [29] [%] | cell viability [30] [%] | cell viability [31] [%] | cell viability [32] [%] | cell viability [33] [%] |
| --- | --- | --- | --- | --- | --- | --- | --- | --- | --- | --- | --- | --- | --- | --- | --- | --- | --- | --- | --- | --- | --- | --- | --- | --- | --- | --- | --- | --- | --- | --- | --- | --- | --- |
| Oc1nc(-c2ccc(C(F)(F)F)cc2)nc2c1CSCC2 | 125 | 90.4 | 96.4 | 81.1 | 98 | 93.4 | 111 | 98.4 | 118 | 94 | 100 | 88.5 | 88 | 93.5 | 91.8 | 95.5 | 97.9 | 96.2 | 87.6 | 85.8 | 104 | 88.2 | 92.6 | 99.8 | 105 | 94.3 | 98.1 | 102 | 91.8 | 102 | 98.4 | 99.4 | 90.4 |
| COC(=O)C\1=C(C)\N\C(=C(/C1C2=CC=CC3=NON=C23)C(=O)OC(C)C)C (centres undefined) | 115 | 116 | 104 | 111 | 111 | 108 | 96.3 | 89.8 | 88.8 | 96.3 | 85.1 | 95.4 | 94.6 | 91.3 | 99.3 | 103 | 89.4 | 94.5 | 85.2 | 81.4 | 86.6 | 94.7 | 105 | 101 | 100 | 108 | 88.7 | 92.3 | 87.8 | 102 | 92.8 | 93.4 | 106 |
| COc1cc[nH]c2ncc(C(=O)C(=O)N3CCN(C(=O)c4ccccc4)C[C@H]3C)c1-2 | 137 | 121 | 111 | 105 | 121 | 108 | 106 | 108 | 120 | 100 | 99.1 | 99.9 | 101 | 101 | 101 | 99 | 99.2 | 100 | 99.1 | 107 | 105 | 102 | 109 | 117 | 114 | 115 | 119 | 108 | 108 | 105 | 99.2 | 103 | 91.9 |
| CCc1ccc(/C=C2/SC(=S)NC2=O)cc1 | 70.3 | 79.1 | 88 | 86 | 74.5 | 74.2 | 79.2 | 79.7 | 94.3 | 51.3 | 92.2 | 75.7 | 83.5 | 81.8 | 81.9 | 87.2 | 83.8 | 88.1 | 76.3 | 93.4 | 59.9 | 75 | 78.2 | 71.1 | 83.2 | 81.4 | 87.5 | 73.4 | 84.3 | 82.1 | 85.3 | 48.6 | 86.3 |
| COc1cccc2c1C(=O)c1c(O)c3c(c(O)c1C2=O)C[C@@](O)(C(=O)CO)C[C@@H]3O[C@H]1C[C@H](N)[C@H](O)[C@H](C)O1 | 112 | 127 | 108 | 120 | 96.2 | 108 | 116 | 90.2 | 8.77 | 37.4 | 6.99 | 116 | 111 | 107 | 115 | 102 | 102 | 108 | 102 | 7.5 | 25.6 | 6.28 | 112 | 116 | 105 | 104 | 107 | 110 | 100 | 104 | 8.85 | 34.3 | 5.09 |
| Cc1cc2c(C(N)=O)cccc2n1-c1nc2c(c(NCc3ccccc3)n1)COCC2 | 117 | 124 | 101 | 108 | 114 | 103 | 85.5 | 25 | 4.02 | 3.66 | 3.75 | 89.3 | 106 | 92.9 | 87.8 | 99.8 | 98 | 81.6 | 44.1 | 3.08 | 3.4 | 3.91 | 92.9 | 90.3 | 92.4 | 92.8 | 91.2 | 100 | 73.3 | 20.6 | 3.21 | 2.75 | 2.84 |
| COC1=CC=C(C(=C1)OC(C)C)C/2=N/[C@@H]([C@@H](N2C(=O)N3CCNC(=O)C3)C4=CC=C(Cl)C=C4)C5=CC=C(Cl)C=C5 | 119 | 115 | 114 | 120 | 119 | 112 | 124 | 105 | 96.1 | 29.3 | 5.33 | 105 | 118 | 106 | 100 | 103 | 103 | 104 | 103 | 95.9 | 78.1 | 7.76 | 100 | 102 | 104 | 105 | 102 | 114 | 106 | 103 | 90.8 | 70.3 | 17.7 |
| COC(=O)c1ccc2c(c1)NC(=O)/C2=C(\Nc1ccc(N(C)C(=O)CN2CCN(C)CC2)cc1)c1ccccc1 | 92.1 | 92.1 | 106 | 99.5 | 106 | 91.3 | 89 | 103 | 87 | 91.9 | 84.4 | 98.3 | 96.8 | 96.5 | 97.4 | 89.3 | 110 | 109 | 97.8 | 92.6 | 83.4 | 83.1 | 92.7 | 93 | 94.7 | 90.8 | 93.5 | 95.2 | 85.3 | 88.9 | 88.5 | 96.8 | 98.5 |
| COc1ccc(C(=O)c2c(C)n(CCN3CCOCC3)c3cc(I)ccc23)cc1 | – | – | – | – | – | – | – | – | – | – | – | 105 | 112 | 126 | 133 | 138 | 122 | 119 | 29.9 | 27.1 | 24.9 | 21.1 | 100 | 115 | 124 | 116 | 130 | 126 | 137 | 52.3 | 29.1 | 27.4 | 23.3 |
| CCCCCNC(=O)N1CCC(CN(Cc2ccc(Cl)cc2)Cc2ccc([N+](=O)[O-])s2)C1 (centres undefined) | – | – | – | – | – | – | – | – | – | – | – | 123 | 111 | 104 | 102 | 107 | 120 | 108 | 112 | 110 | 94.5 | 94.8 | – | – | – | – | – | – | – | – | – | – | – |
| Nc1ncnc2c1ncn2[C@@H]1O[C@H](CO)C[C@H]1O | 105 | 97.1 | 97.1 | 102 | 94.3 | 101 | 73 | 87.4 | 95.2 | 81.7 | 79.8 | 85.7 | 87 | 94.7 | 87.9 | 93 | 84.4 | 88 | 80.7 | 91.1 | 82.5 | 92.4 | 103 | 109 | 94.9 | 103 | 103 | 90.2 | 87.8 | 92.2 | 85.6 | 91.2 | 92.1 |
| CCCCOc1c(C(=O)c2c(F)cc(C)cc2F)cnc2[nH]ncc12 | 95.9 | 113 | 107 | 103 | 103 | 109 | 103 | 119 | 89.1 | 96.2 | 68.9 | 89.4 | 98.2 | 82.7 | 96.7 | 98.7 | 94 | 95.6 | 93.6 | 98.9 | 90.3 | 79.1 | 97.6 | 96.3 | 100 | 92.6 | 92.7 | 85.5 | 83.1 | 86.7 | 70.6 | 88.4 | 84.3 |
| Cc1csc(-c2nnc(Nc3ccc(Oc4ncccc4-c4ccnc(N)n4)cc3)c3ccccc23)c1 | 106 | 101 | 113 | 79 | 95.3 | 89.3 | 99.5 | 86.7 | 72.6 | 76.3 | 84.1 | 99.9 | 111 | 97.5 | 53.2 | 45.9 | 52.6 | 75.1 | 81.6 | 65.9 | 67.3 | 74.1 | 105 | 103 | 89.8 | 60.3 | 62 | 59 | 72.6 | 77.9 | 72.5 | 84.1 | 80.5 |
| CC(C)c1cc(C(C)C)c(CC(=O)N[S+](=O)([O-])Oc2c(C(C)C)cccc2C(C)C)c(C(C)C)c1 | 103 | 110 | 93.9 | 114 | 112 | 88.6 | 92.2 | 98.8 | 100 | 92.5 | 88.9 | 96.3 | 89.8 | 88.6 | 82.8 | 94.8 | 87.8 | 105 | 93 | 98.3 | 90.5 | 86.9 | 95.9 | 89.4 | 91.4 | 89.7 | 87.4 | 91.4 | 97 | 84.5 | 90.8 | 87.9 | 65.3 |
| Cc1coc2c1C(=O)C(=O)c1c-2ccc2c1CCCC2(C)C | 111 | 98.8 | 126 | 118 | 107 | 105 | 92.9 | 95.5 | 82 | 105 | 96.8 | 89.8 | 98.7 | 96.8 | 104 | 116 | 103 | 99.9 | 83.5 | 83.5 | 95.1 | 90.8 | 97.4 | 104 | 95.7 | 98.9 | 103 | 88.8 | 88.4 | 87.5 | 88.4 | 92.5 | 93.1 |
| O=C(CCCN1CCN(c2ccc(F)cc2)CC1)NC1c2ccccc2CSc2ccccc21 (centres undefined) | – | – | – | – | – | – | – | – | – | – | – | 135 | 109 | 108 | 125 | 126 | 117 | 112 | 117 | 74 | 103 | 71.1 | 121 | 120 | 125 | 114 | 118 | 112 | 113 | 106 | 99.9 | 90.8 | 58 |
